Data on ten molecules can be found in PubChem BioAssay AID1259407 (Chemical Carcinogenesis Research Information System (CCRIS), 2018).

Calls of active or inactive are those of the source. The rule behind the calls is not given here.

For this series, the system named is CCRIS mutagenicity, Ames/micronucleus/aberration tests. As to the kind of experiment: CCRIS mutagenicity studies.
The mark [1] stands for this setting: Test System: AMES SALMONELLA TYPHIMURIUM, Strain/Indicator: TA98, Metabolic Activation: NONE, Method: STANDARD PLATE.
Where [2] appears, read: Test System: AMES SALMONELLA TYPHIMURIUM, Strain/Indicator: TA98, Metabolic Activation: RAT, LIVER, S-9, AROCLOR 1254, Method: STANDARD PLATE.
[3] abbreviates: Test System: AMES SALMONELLA TYPHIMURIUM, Strain/Indicator: TA100, Metabolic Activation: NONE, Method: STANDARD PLATE.
Setting [4] is: Test System: AMES SALMONELLA TYPHIMURIUM, Strain/Indicator: TA100, Metabolic Activation: RAT, LIVER, S-9, AROCLOR 1254, Method: STANDARD PLATE.
Where [5] appears, read: Test System: AMES SALMONELLA TYPHIMURIUM, Strain/Indicator: TA98, Metabolic Activation: NONE, Method: PREINCUBATION
Where [6] appears, read: Test System: AMES SALMONELLA TYPHIMURIUM, Strain/Indicator: TA100, Metabolic Activation: NONE, Method: PREINCUBATION
Setting [7] is: Test System: AMES SALMONELLA TYPHIMURIUM, Strain/Indicator: TA1535, Metabolic Activation: NONE, Method: PREINCUBATION
Setting [8] is: Test System: AMES SALMONELLA TYPHIMURIUM, Strain/Indicator: TA1537, Metabolic Activation: NONE, Method: PREINCUBATION

For `O=CN(O)c1ccc(Br)cc1`, the mutagenic call by setting is: under setting [1], “inactive; negative”; under setting [2], “active; positive”; under setting [3], “inactive; negative”; under setting [4], “active; positive”.
`CC1CC(C(C)C(C)(C)O)O[C@H]2C[C@@]3(C)[C@@H]4CC[C@H]5C(C)(C)C(=O)CC[C@@]56C[C@@]46CC[C@]3(C)[C@@H]12` (some centres not stated): the mutagenic call (End Point: IN VITRO MICRONUCLEUS, Test System: HUMAN PERIPHERAL LYMPHOCYTES, Metabolic Activation: NONE) was “inactive; negative”.
On to `CC(=O)Nc1cc(N(CCOC(C)=O)CCOC(C)=O)ccc1N=Nc1ccc([N+](=O)[O-])cc1Cl`, for which the mutagenic call is “inactive; negative” (End Point: IN VITRO CHROMOSOMAL ABERRATIONS, Test System: CHL CELLS, Metabolic Activation: NONE) and “inactive; negative” (End Point: IN VITRO CHROMOSOMAL ABERRATIONS, Test System: CHL CELLS, Metabolic Activation: RAT, LIVER, S-9, SODIUM PHENOBARBITAL AND 5,6-BENZOFLAVONE).
Turning to `CC(=O)Nc1ccc(C(=O)/C=C/c2ccccc2)cc1`, the mutagenic call was “inactive; negative” under setting [1], “inactive; negative” under setting [2], “inactive; negative” under setting [3] and “inactive; negative” under setting [4].
Turning to `C=Cc1ccncc1`, the mutagenic call was “inactive; negative” under setting [1]; “inactive; negative” under setting [2]; “inactive; negative” under setting [3]; “inactive; negative” under setting [4]; “inactive; negative” (Test System: AMES SALMONELLA TYPHIMURIUM, Strain/Indicator: TA1535, Metabolic Activation: NONE, Method: STANDARD PLATE); “inactive; negative” (Test System: AMES SALMONELLA TYPHIMURIUM, Strain/Indicator: TA1535, Metabolic Activation: RAT, LIVER, S-9, AROCLOR 1254, Method: STANDARD PLATE). Besides, the mutagenic call by setting is: (Test System: AMES SALMONELLA TYPHIMURIUM, Strain/Indicator: TA1538, Metabolic Activation: NONE, Method: STANDARD PLATE) “inactive; negative”; (Test System: AMES SALMONELLA TYPHIMURIUM, Strain/Indicator: TA1538, Metabolic Activation: RAT, LIVER, S-9, AROCLOR 1254, Method: STANDARD PLATE) “inactive; negative”; (Test System: UDS RAT HEPATOCYTES, Strain/Indicator: THY INCORP, Metabolic Activation: NONE) “inactive; negative”.
Regarding `CC(C)(C)C1=CC(=CC=C2C=C(C(C)(C)C)C(=O)C(C(C)(C)C)=C2)C=C(C(C)(C)C)C1=O`, the mutagenic call is, setting by setting: under setting [5], “inactive; negative”; (Test System: AMES SALMONELLA TYPHIMURIUM, Strain/Indicator: TA98, Metabolic Activation: RAT, LIVER, S-9, Method: PREINCUBATION) “inactive; negative”; under setting [6], “inactive; negative”; (Test System: AMES SALMONELLA TYPHIMURIUM, Strain/Indicator: TA100, Metabolic Activation: RAT, LIVER, S-9, Method: PREINCUBATION) “inactive; negative”.
Take `CC1=CC(=C(c2ccc(N)cc2)c2ccc(N)cc2)C=CC1=N`: the mutagenic call is “inactive; negative” under setting [5]; “inactive; negative” (Test System: AMES SALMONELLA TYPHIMURIUM, Strain/Indicator: TA98, Metabolic Activation: RAT LIVER S-9, PHENOBARBITAL AND BETA-NAPHTHOFLAVONE, Method: PREINCUBATION); “inactive; negative” under setting [6]; “inactive; negative” (Test System: AMES SALMONELLA TYPHIMURIUM, Strain/Indicator: TA100, Metabolic Activation: RAT LIVER S-9, PHENOBARBITAL AND BETA-NAPHTHOFLAVONE, Method: PREINCUBATION); “active; positive” (Test System: AMES SALMONELLA TYPHIMURIUM, Strain/Indicator: TA100, Method: PREINCUBATION); “inactive; negative” under setting [7]. Also, the mutagenic call is, setting by setting: (Test System: AMES SALMONELLA TYPHIMURIUM, Strain/Indicator: TA1535, Metabolic Activation: RAT LIVER S-9, PHENOBARBITAL AND BETA-NAPHTHOFLAVONE, Method: PREINCUBATION) “inactive; negative”; under setting [8], “inactive; negative”; (Test System: AMES SALMONELLA TYPHIMURIUM, Strain/Indicator: TA1537, Metabolic Activation: RAT LIVER S-9, PHENOBARBITAL AND BETA-NAPHTHOFLAVONE, Method: PREINCUBATION) “inactive; negative”; (Test System: AMES SALMONELLA TYPHIMURIUM, Strain/Indicator: TA1538, Metabolic Activation: NONE, Method: PREINCUBATION) “inactive; negative”; (Test System: AMES SALMONELLA TYPHIMURIUM, Strain/Indicator: TA1538, Metabolic Activation: RAT LIVER S-9, PHENOBARBITAL AND BETA-NAPHTHOFLAVONE, Method: PREINCUBATION) “inactive; negative”; (Test System: E.COLI, Strain/Indicator: WP2UVRA, Metabolic Activation: NONE, Method: PREINCUBATION) “inactive; negative”. Also, for the setting “Test System: E.COLI, Strain/Indicator: WP2UVRA, Metabolic Activation: RAT LIVER S-9, PHENOBARBITAL AND BETA-NAPHTHOFLAVONE, Method: PREINCUBATION”, the mutagenic call was “inactive; negative”.
As to `O=C(O)CCC(=O)OC[C@@H](NC(=O)C(Cl)Cl)[C@H](O)c1ccc([N+](=O)[O-])cc1`, the mutagenic call (Test System: AMES SALMONELLA TYPHIMURIUM, Strain/Indicator: TA98, Metabolic Activation: HAMSTER, LIVER, S-9, AROCLOR 1254 (10%), Method: PREINCUBATION) was “inactive; negative”; the mutagenic call under setting [5] is “inactive; negative”; the mutagenic call (Test System: AMES SALMONELLA TYPHIMURIUM, Strain/Indicator: TA98, Metabolic Activation: RAT, LIVER, S-9, AROCLOR 1254 (10%), Method: PREINCUBATION) is “inactive; negative”; the mutagenic call (Test System: AMES SALMONELLA TYPHIMURIUM, Strain/Indicator: TA100, Metabolic Activation: HAMSTER, LIVER, S-9, AROCLOR 1254 (10%), Method: PREINCUBATION) was “inactive; negative”; the mutagenic call under setting [6] is “inactive; negative”; the mutagenic call (Test System: AMES SALMONELLA TYPHIMURIUM, Strain/Indicator: TA100, Metabolic Activation: RAT, LIVER, S-9, AROCLOR 1254 (10%), Method: PREINCUBATION) was “inactive; negative”. For the same molecule, the mutagenic call runs as follows: (Test System: AMES SALMONELLA TYPHIMURIUM, Strain/Indicator: TA1535, Metabolic Activation: HAMSTER, LIVER, S-9, AROCLOR 1254 (10%), Method: PREINCUBATION) “inactive; negative”; under setting [7], “inactive; negative”; (Test System: AMES SALMONELLA TYPHIMURIUM, Strain/Indicator: TA1535, Metabolic Activation: RAT, LIVER, S-9, AROCLOR 1254 (10%), Method: PREINCUBATION) “inactive; negative”; (Test System: AMES SALMONELLA TYPHIMURIUM, Strain/Indicator: TA1537, Metabolic Activation: HAMSTER, LIVER, S-9, AROCLOR 1254 (10%), Method: PREINCUBATION) “inactive; negative”; under setting [8], “inactive; negative”; (Test System: AMES SALMONELLA TYPHIMURIUM, Strain/Indicator: TA1537, Metabolic Activation: RAT, LIVER, S-9, AROCLOR 1254 (10%), Method: PREINCUBATION) “inactive; negative”. Besides, the mutagenic call reads like this: (Test System: MOUSE LYMPHOMA, Strain/Indicator: L5178Y (TK+/TK-), Metabolic Activation: NONE, Method: SUSPENSION/PLATE) “active; positive”; (Test System: MOUSE LYMPHOMA, Strain/Indicator: L5178Y (TK+/TK-), Metabolic Activation: RAT, LIVER, S-9, AROCLOR 1254, Method: SUSPENSION/PLATE) “active; positive”; (Test System: MOUSE LYMPHOMA, Strain/Indicator: L5178Y (TK+/TK-), Metabolic Activation: RAT, LIVER, S-9, Method: SUSPENSION/PLATE) “active; positive”.
Take `Nc1nc(Cl)nc2c1ncn2[C@H]1C[C@H](O)[C@@H](CO)O1`: where the note is “End Point: In vivo chromosomal aberrations, Test System: Bone marrow cells, Species: Mouse, Strain/Sex: Balb/C/Male and female, Route: Intraperitoneal”, the mutagenic call was “inactive; negative”.
`Cc1c(N)cnc2c1nc1c(C)cccn12`: the mutagenic call by setting is: under setting [1], “inactive; negative”; (Test System: AMES SALMONELLA TYPHIMURIUM, Strain/Indicator: TA98, Metabolic Activation: RAT, LIVER, CYTOSOL, AROCLOR 1254, Method: STANDARD PLATE) “active; positive”; (Test System: AMES SALMONELLA TYPHIMURIUM, Strain/Indicator: TA98, Metabolic Activation: RAT, LIVER, MICROSOMES, AROCLOR 1254, Method: STANDARD PLATE) “active; positive”; under setting [2], “active; positive”.
